From the NIST ThermoML archive (doi:10.1016/j.fluid.2007.05.029)

Assays:
[1] = xn = mol fraction of the nth substance listed

CC(O)CCCCO (stereo unspecified) [1,5-hexanediol] + O
surface tension liquid-gas [mN/m], [1]
Details	283.15 K	288.15 K	293.15 K	298.15 K	303.15 K	308.15 K
x1 = 0.001	65.3	65	63.8	62.8	62.3	61.2
x1 = 0.0021	58.3	57.6	56.9	56.1	55.7	55
x1 = 0.0037	55.3	54.7	54.2	53.6	52.9	52.4
x1 = 0.0053	53	52.5	51.7	51.2	50.6	50.3
x1 = 0.0071	51	50.4	49.9	49.3	48.8	48.5
x1 = 0.0089	50	49.2	48.6	47.9	47.3	47
x1 = 0.0111	47.5	46.7	46.4	46	45.7	45
x1 = 0.0145	45.3	44.7	44.5	43.8	43.4	42.9
x1 = 0.0194	43	42.2	41.3	40.3	39.8	38.6
x1 = 0.0324	39.7	39.1	38.6	38	37.5	37
x1 = 0.0507	38	37.3	36.9	36.6	35.7	35
x1 = 0.0738	36.9	36.5	36.1	35.8	34.9	34.4
x1 = 1	34.6	34.3	34.1	33.9	33.7	33.5

O [water] + CC(O)CCC(C)O
[1], x2 = 0
Details	surface tension liquid-gas [mN/m]
283.15 K	74.1
288.15 K	73.4
293.15 K	72.6
298.15 K	71.8
303.15 K	71
308.15 K	70.2

CCCCC(O)CO (stereo unspecified) [1,2-hexanediol] + O
surface tension liquid-gas [mN/m], [1]
Details	283.15 K	288.15 K	293.15 K	298.15 K	303.15 K	308.15 K
x1 = 0.001	55.1	54.5	54.3	53.8	53.3	52.7
x1 = 0.0016	47.5	47.3	47	46.6	46.3	45.6
x1 = 0.002	45.1	44.5	43.9	43.4	42.8	42.3
x1 = 0.0034	41.6	40.6	40	39.3	38.5	38.1
x1 = 0.0052	37.3	36.3	35.5	34.7	33.8	33
x1 = 0.0077	32.2	31.4	30.8	30	29.5	28.9
x1 = 0.0108	28.7	28.1	27.7	27.2	26.8	26.4
x1 = 0.014	27.6	26.9	26.3	25.7	25.2	24.8
x1 = 0.0175	26.4	25.9	25.7	25.3	24.8	24.4
x1 = 0.0251	26.2	25.9	25.5	25.2	25	24.7
x1 = 0.036	25.7	25.5	25.2	25	24.7	24.5
x1 = 0.046	25.7	25.4	25.2	24.9	24.7	24.4
x1 = 0.0514	25.7	25.4	25.2	24.9	24.7	24.4
x1 = 0.0655	25.6	25.4	25.1	24.9	24.4	24.1
x1 = 0.0831	25.6	25.3	25.1	24.8	24.5	24.1
x1 = 0.0968	25.1	24.9	24.6	24.4	24.3	24
x1 = 0.1119	24.9	24.7	24.4	24.1	23.9	23.6
x1 = 1	24.7	24.4	24.1	23.8	23.6	23.3

OCCCCCCO [1,6-hexanediol] + O
surface tension liquid-gas [mN/m], [1]
Details	283.15 K	288.15 K	293.15 K	298.15 K	303.15 K	308.15 K
x1 = 0.0013	63.8	63.1	62.3	62	61.1	60.6
x1 = 0.0017	62.5	61.8	61.2	60.4	59.7	58.8
x1 = 0.0021	61.5	60.7	60.3	59.4	58.5	57.6
x1 = 0.0029	60	59.2	58.6	57.5	56.8	56
x1 = 0.0057	56.9	55.7	55	53.8	53.3	52.4
x1 = 0.007	55.1	54.3	53.4	52.1	51.7	50.9
x1 = 0.0089	53.3	52.4	51.4	50.2	50	49.4
x1 = 0.014	50.6	49.4	49.1	48.3	48.3	47.2
x1 = 0.0159	49.4	48.6	48	47.5	47	46.6
x1 = 0.0237	48.5	47.6	47	46.5	46.1	45.8
x1 = 0.0373	46.1	45.7	45.4	45	44.5	44.2
x1 = 0.0463	44.4	44.1	43.9	43.6	43.3	43
x1 = 0.0545	43.7	43.4	43.2	42.9	42.5	42.2
x1 = 0.0742	43.5	43.3	43	42.8	42.4	42.1
x1 = 0.098	43.4	43.1	42.9	42.7	42.4	42.1
x1 = 0.1165	43.4	43.1	42.8	42.6	42.3	42

CCCCC(O)CO (stereo unspecified) [1,2-hexanediol]
Details	surface tension liquid-gas [mN/m]
283.15 K	24.7
288.15 K	24.4
293.15 K	24.1
298.15 K	23.8
303.15 K	23.6
308.15 K	23.3

O [water] + CCCCC(O)CO
[1], x2 = 0
Details	surface tension liquid-gas [mN/m]
283.15 K	74.1
288.15 K	73.4
293.15 K	72.6
298.15 K	71.8
303.15 K	71
308.15 K	70.2

O [water]
Details	surface tension liquid-gas [mN/m]
283.15 K	74.1
288.15 K	73.4
293.15 K	72.6
298.15 K	71.8
303.15 K	71
308.15 K	70.2

CC(O)CCC(C)O (stereo unspecified) [2,5-hexanediol]
Details	surface tension liquid-gas [mN/m]
283.15 K	32.3
288.15 K	32
293.15 K	31.9
298.15 K	31.6
303.15 K	31.3
308.15 K	31

O [water] + CC(O)CCCCO
[1], x2 = 0
Details	surface tension liquid-gas [mN/m]
283.15 K	74.1
288.15 K	73.4
293.15 K	72.6
298.15 K	71.8
303.15 K	71
308.15 K	70.2

CC(O)CCCCO (stereo unspecified) [1,5-hexanediol]
Details	surface tension liquid-gas [mN/m]
283.15 K	34.6
288.15 K	34.3
293.15 K	34.1
298.15 K	33.9
303.15 K	33.7
308.15 K	33.5

O [water] + OCCCCCCO
[1], x2 = 0
Details	surface tension liquid-gas [mN/m]
283.15 K	74.1
288.15 K	73.4
293.15 K	72.6
298.15 K	71.8
303.15 K	71
308.15 K	70.2

CC(O)CCC(C)O (stereo unspecified) [2,5-hexanediol] + O
surface tension liquid-gas [mN/m], [1]
Details	283.15 K	288.15 K	293.15 K	298.15 K	303.15 K	308.15 K
x1 = 0.001	68.5	67.9	67.7	67.2	66.6	65.9
x1 = 0.0027	60.2	59.6	59.1	58.6	57.9	57.3
x1 = 0.0037	56.9	56.3	55.6	55.2	54.7	54.2
x1 = 0.0068	53.5	52.9	52.3	51.6	51.2	50.7
x1 = 0.0088	51.6	51	50.3	49.5	48.6	48
x1 = 0.0103	50	49.4	49.2	48.7	48.2	47.8
x1 = 0.0135	47.9	47.5	47.2	46.8	46.3	45.8
x1 = 0.0168	46.1	45.7	45.5	45.2	44.9	44.6
x1 = 0.0263	43.4	43.2	42.7	42.1	41.6	41.3
x1 = 0.037	41.5	41.1	40.4	40	39.7	39.2
x1 = 0.0462	40.4	40.1	39.7	39	38.7	38.2
x1 = 0.063	39.1	38.6	38.1	37.4	37.1	36.6
x1 = 0.0808	38.5	38	37.5	37	36.5	36.2
x1 = 0.096	38.3	37.8	37.3	36.8	36.3	36
x1 = 0.1117	37.7	37.2	36.9	36.2	35.9	35.6
x1 = 1	32.3	32	31.9	31.6	31.3	31
